Measurements as given in ChEMBL document CHEMBL1201862, “PubChem BioAssay data set” (2004).
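In this assay, cells in 96-well plates receive the compound at five concentrations for 48 hours. Endpoints are linearly interpolated between the surrounding concentrations. GI50: concentration for 50% inhibition of growth.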 Active and inactive are the calls of the source. Rule as the data show it: active = GI50 up to about 1.1 µM and inactive = higher.

Key:
Test in all cases: inhibition of tumour cell growth, NCI panel, 48 h
SN12C = system: SN12C
HOP-92 = system: HOP-92
HOP-62 = system: HOP-62
NCI-H226 = system: NCI-H226
RXF 393 = system: RXF 393
SK-MEL-28 = system: SK-MEL-28
IGROV-1 = system: IGROV-1
786-0 = system: 786-0
ACHN = system: ACHN
A549 = system: A549
TK-10 = system: TK-10
HCC 2998 = system: HCC 2998
OVCAR-8 = system: OVCAR-8
BT-549 = system: BT-549
SW-620 = system: SW-620
SF-268 = system: SF-268
U-251 = system: U-251
NCI/ADR-RES = system: NCI/ADR-RES
DU-145 = system: DU-145
NCI-H522 = system: NCI-H522
Hs-578T = system: Hs-578T
SNB-75 = system: SNB-75
M14 = system: M14
OVCAR-3 = system: OVCAR-3
HCT-116 = system: HCT-116
EKVX = system: EKVX
KM12 = system: KM12
SNB-19 = system: SNB-19
T47D = system: T47D
PC-3 = system: PC-3
MDA-MB-231 = system: MDA-MB-231
SK-MEL-2 = system: SK-MEL-2
LOX IMVI = system: LOX IMVI
NCI-H460 = system: NCI-H460
OVCAR-4 = system: OVCAR-4
SF-539 = system: SF-539
UACC-257 = system: UACC-257
MCF7 = system: MCF7
HCT-15 = system: HCT-15
CAKI-1 = system: CAKI-1
MOLT-4 = system: MOLT-4
MDA-MB-435 = system: MDA-MB-435
Malme-3M = system: Malme-3M
K562 = system: K562
HT-29 = system: HT-29
NCI-H23 = system: NCI-H23
RPMI-8226 = system: RPMI-8226
A498 = system: A498
MDA-N = system: MDA-N
COLO 205 = system: COLO 205
SR = system: SR
SK-OV-3 = system: SK-OV-3
UACC-62 = system: UACC-62
SF-295 = system: SF-295
OVCAR-5 = system: OVCAR-5
HL-60 = system: HL-60
SK-MEL-5 = system: SK-MEL-5
CCRF-CEM = system: CCRF-CEM
UO-31 = system: UO-31

For `Cc1cc2c([nH]c3ccccc32)c(O)c1-c1c(C)cc2c([nH]c3ccccc32)c1O`, the GI50 (SN12C) was 2.48 µM (inactive), the GI50 (HOP-92) was 15.7 µM (inactive) and the GI50 (HOP-62) was 17.1 µM (inactive). For the same molecule, the GI50 (NCI-H226) was 18.5 µM (inactive), the GI50 (RXF 393) was 10.5 µM (inactive) and the GI50 (SK-MEL-28) was 30.5 µM (inactive). For the same molecule, the GI50 (IGROV-1) was 12.4 µM (inactive), the GI50 (786-0) was 13.7 µM (inactive) and the GI50 (ACHN) was 14.3 µM (inactive). For the same molecule, the GI50 (A549) was 12.1 µM (inactive), the GI50 (TK-10) was 17.4 µM (inactive) and the GI50 (HCC 2998) was 10.6 µM (inactive). The GI50 (OVCAR-8) was 15.7 µM (inactive), the GI50 (BT-549) was 18.8 µM (inactive) and the GI50 (SW-620) was 22.9 µM (inactive). The GI50 (SF-268) was 13.8 µM (inactive), the GI50 (U-251) was 11.5 µM (inactive) and the GI50 (NCI/ADR-RES) was 13.9 µM (inactive). The GI50 (DU-145) was 13 µM (inactive), the GI50 (NCI-H522) was 16.7 µM (inactive) and the GI50 (Hs-578T) was 15.3 µM (inactive). For the same molecule, the GI50 (SNB-75) was 14 µM (inactive), the GI50 (M14) was 14.8 µM (inactive) and the GI50 (OVCAR-3) was 15.8 µM (inactive). The GI50 (HCT-116) was 14.2 µM (inactive), the GI50 (EKVX) was 13.8 µM (inactive) and the GI50 (KM12) was 10.1 µM (inactive). The GI50 (SNB-19) was 16.9 µM (inactive), the GI50 (T47D) was 15.5 µM (inactive) and the GI50 (PC-3) was 13.2 µM (inactive). For the same molecule, the GI50 (MDA-MB-231) was 17.5 µM (inactive), the GI50 (SK-MEL-2) was 15.8 µM (inactive) and the GI50 (LOX IMVI) was 16.7 µM (inactive). The GI50 (NCI-H460) was 4.57 µM (inactive), the GI50 (OVCAR-4) was 15.3 µM (inactive) and the GI50 (SF-539) was 17 µM (inactive). For the same molecule, the GI50 (UACC-257) was 16.5 µM (inactive).

With `COc1ccc(Nc2nc(N)c(C(=O)c3ccccc3)s2)cc1` the GI50 (SN12C) was 0.0811 µM (active), the GI50 (HOP-92) was 33.6 µM (inactive) and the GI50 (HOP-62) was 16.7 µM (inactive). For the same molecule, the GI50 (MCF7) was 540 nM (active), the GI50 (NCI-H226) was 0.0935 µM (active) and the GI50 (RXF 393) was 0.19 µM (active). The GI50 (HCT-15) was 47.1 nM, the GI50 (CAKI-1) was 34.2 nM (active) and the GI50 (MOLT-4) was < 23.8 nM (active). For the same molecule, the GI50 (SK-MEL-28) was 44.4 µM (inactive), the GI50 (MDA-MB-435) was < 10 nM (active) and the GI50 (IGROV-1) was 0.273 µM (active). The GI50 (786-0) was 0.0494 µM (active), the GI50 (ACHN) was 7.67 µM (inactive) and the GI50 (A549) was 0.152 µM (active). For the same molecule, the GI50 (TK-10) was 23.8 µM (inactive), the GI50 (HCC 2998) was 0.227 µM (active) and the GI50 (OVCAR-8) was 0.139 µM (active). For the same molecule, the GI50 (BT-549) was 1.33 µM (inactive), the GI50 (Malme-3M) was 45.2 µM (inactive) and the GI50 (K562) was 10.2 nM (active). The GI50 (HT-29) was 16.2 nM (active), the GI50 (SW-620) was 0.0197 µM (active) and the GI50 (NCI-H23) was 232 nM (active). The GI50 (SF-268) was 0.839 µM (active), the GI50 (U-251) was 0.0302 µM (active) and the GI50 (RPMI-8226) was 68.1 nM (active). For the same molecule, the GI50 (A498) was 5.66 µM (inactive), the GI50 (NCI/ADR-RES) was < 0.01 µM (active) and the GI50 (DU-145) was 0.178 µM (active). The GI50 (NCI-H522) was 0.0148 µM (active), the GI50 (Hs-578T) was 0.0826 µM (active) and the GI50 (MDA-N) was < 10 nM (active). For the same molecule, the GI50 (SNB-75) was 0.0258 µM (active), the GI50 (OVCAR-3) was 0.0607 µM (active) and the GI50 (COLO 205) was 39.8 nM (active). The GI50 (SR) was < 10 nM (active), the GI50 (HCT-116) was 0.0267 µM (active) and the GI50 (EKVX) was 0.142 µM (active). For the same molecule, the GI50 (KM12) was 0.143 µM (active), the GI50 (SNB-19) was 0.037 µM (active) and the GI50 (SK-OV-3) was 86.5 nM (active). For the same molecule, the GI50 (T47D) was 40.2 µM (inactive), the GI50 (PC-3) was 0.0396 µM (active) and the GI50 (UACC-62) was 50 nM (active). The GI50 (SK-MEL-2) was 0.054 µM (active), the GI50 (LOX IMVI) was 0.0524 µM (active) and the GI50 (SF-295) was 16.4 nM (active). The GI50 (NCI-H460) was 0.0289 µM (active), the GI50 (OVCAR-4) was 2.44 µM (inactive) and the GI50 (OVCAR-5) was 19.5 µM (inactive). For the same molecule, the GI50 (HL-60) was < 10 nM (active), the GI50 (SF-539) was 0.0129 µM (active) and the GI50 (UACC-257) was 29.5 µM (inactive). For the same molecule, the GI50 (SK-MEL-5) was 68.9 nM (active), the GI50 (CCRF-CEM) was 22.6 nM (active) and the GI50 (UO-31) was 91.2 nM (active).
